Assay results taken from PubChem BioAssay (NCI).
Where “and” joins values, the source holds several entries; their conditions need not be identical. Equal values may be shown once.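 Test compounds were applied to cells in 96-well plates for 48 hours at 5 doses. GI50 = concentration required for 50% inhibition of growth. TGI denotes the concentration required for complete inhibition of growth.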

These compounds were tested on M14 melanoma (assay: DTP human tumour cell line panel, 48 h).
Cc1oc2c(C)c3oc(=O)cc(C)c3cc2c1CN1C(=O)C2OCCOCCOCCOCCOCCO[C@H]2C1=O (stereo partly drawn) showed a TGI of over 100 µM. Cc1ccc(-c2nc(C#N)c(S(=O)(=O)n3nc(C)cc3N)o2)cc1 gave a GI50 of 3.35 µM and a TGI of 14.4 µM. Compound O=C(Nc1ccncc1)C(=O)c1cn(Cc2ccc(Cl)cc2)c2ccccc12 has a GI50 of 0.048 µM and a TGI of over 100 µM.

Each compound was assayed on NCI-H460 lung (assay: DTP human tumour cell line panel, 48 h).
c1ccc(CN2CCC3(CC2)SSC2(CCN(Cc4ccccc4)CC2)S3)cc1 gave a TGI of 84.6 µM. Compound CCOC(=O)c1c2c(n(Cc3ccc(Cl)cc3Cl)c1C)-c1nc[nH]c1C(=O)C2=O has a GI50 of 4.79 µM and a TGI of 15.9 µM. Cc1cc(C(=C2C=CC(=Nc3ccccc3)C=C2)c2ccc(Nc3ccccc3)cc2)ccc1N showed a GI50 of 0.223 µM and a TGI of 0.532 µM. For C#CC1(O)C(COP(=O)(O)OC(COCCCCCCCCCCCCCCCCCC)COP(=O)(O)OCC2OC(n3cc(F)c(=O)[nH]c3=O)CC2O)OC(n2ccc(N)nc2=O)C1O (stereo not drawn), the TGI was 15.3 µM and 15.1 µM. With CCN(CC)CCOc1ccc(CCc2cc(OC)c(OC)c(OC)c2)cc1 the TGI was over 100 µM. O=c1[nH]nc2ccccc2c1Cc1ccccc1 showed a TGI of over 100 µM. With O=C(CC(=O)C1=CNc2ccccc2S1)C(=O)Nc1ccc(Cl)cc1 the TGI was over 50 µM. For Cc1oc2c(C)c3oc(=O)cc(C)c3cc2c1CN1C(=O)C2OCCOCCOCCOCCOCCO[C@H]2C1=O (stereo partly drawn), the TGI was over 100 µM. Cc1ccc(-c2nc(C#N)c(S(=O)(=O)n3nc(C)cc3N)o2)cc1 gave a GI50 of 19.5 µM and a TGI of 41.5 µM. For O=C(Nc1ccncc1)C(=O)c1cn(Cc2ccc(Cl)cc2)c2ccccc12, the GI50 was 0.0585 µM and the TGI was over 100 µM.

What follows are compounds tested on SF-268 CNS (assay: DTP human tumour cell line panel, 48 h).
Work on CCn1cc(C(=O)N/N=C/c2ccccc2)c(=O)c2cc(F)c(N3CCNC(C)C3)c(F)c21 (stereo not drawn) yielded a GI50 of 1.96 µM and a TGI of 3.62 µM. With CCOC(=O)c1c2c(n(Cc3ccc(Cl)cc3Cl)c1C)-c1nc[nH]c1C(=O)C2=O the GI50 was 7.89 µM and the TGI was 20.4 µM. For COc1cccc2c1C(=O)c1c(O)c3c(c(O)c1C2=O)CC(O)(C(O)CO)CC3OC1CC(N2CCOCC2)C(O)C(C)O1 (stereo not drawn), the GI50 was 0.0265 µM and the TGI was 0.0166 µM and 0.158 µM. In the case of Cc1cc(C(=C2C=CC(=Nc3ccccc3)C=C2)c2ccc(Nc3ccccc3)cc2)ccc1N, the GI50 is reported as 0.651 µM and the TGI is reported as 1.83 µM. C#CC1(O)C(COP(=O)(O)OC(COCCCCCCCCCCCCCCCCCC)COP(=O)(O)OCC2OC(n3cc(F)c(=O)[nH]c3=O)CC2O)OC(n2ccc(N)nc2=O)C1O (stereo not drawn) was tested, and the TGI was 15.9 µM and 15.1 µM. O=C1c2cccc(NCCN=Cc3cc([N+](=O)[O-])ccc3O)c2C(=O)c2c(NCCN=Cc3cc([N+](=O)[O-])ccc3O)cccc21 gave a GI50 of 2.42 µM and a TGI of over 100 µM. CCN(CC)CCOc1ccc(CCc2cc(OC)c(OC)c(OC)c2)cc1 was tested, and the TGI was over 100 µM. With O=c1[nH]nc2ccccc2c1Cc1ccccc1 the TGI was over 100 µM. With O=C(CC(=O)C1=CNc2ccccc2S1)C(=O)Nc1ccc(Cl)cc1 the TGI was over 50 µM. Compound Cc1oc2c(C)c3oc(=O)cc(C)c3cc2c1CN1C(=O)C2OCCOCCOCCOCCOCCO[C@H]2C1=O (stereo partly drawn) has a TGI of over 100 µM. Cc1ccc(-c2nc(C#N)c(S(=O)(=O)n3nc(C)cc3N)o2)cc1 was tested, and the GI50 was 16.4 µM and the TGI was 36.2 µM. O=C(Nc1ccncc1)C(=O)c1cn(Cc2ccc(Cl)cc2)c2ccccc12 gave a GI50 of 0.0775 µM and a TGI of over 100 µM.

The compounds below were run on SK-MEL-5 melanoma (assay: DTP human tumour cell line panel, 48 h).
CCn1cc(C(=O)N/N=C/c2ccccc2)c(=O)c2cc(F)c(N3CCNC(C)C3)c(F)c21 (stereo not drawn) gave a GI50 of 1.76 µM and a TGI of 3.14 µM. CCOC(=O)c1c2c(n(Cc3ccc(Cl)cc3Cl)c1C)-c1nc[nH]c1C(=O)C2=O showed a GI50 of 13 µM and a TGI of 25.7 µM. COc1cccc2c1C(=O)c1c(O)c3c(c(O)c1C2=O)CC(O)(C(O)CO)CC3OC1CC(N2CCOCC2)C(O)C(C)O1 (stereo not drawn) was tested, and the GI50 was 0.017 µM and the TGI was 0.00553 µM and 0.0332 µM. Compound Cc1cc(C(=C2C=CC(=Nc3ccccc3)C=C2)c2ccc(Nc3ccccc3)cc2)ccc1N has a GI50 of 0.253 µM and a TGI of 0.718 µM. Work on CCN(CC)CCOc1ccc(CCc2cc(OC)c(OC)c(OC)c2)cc1 yielded a TGI of 29.7 µM. O=c1[nH]nc2ccccc2c1Cc1ccccc1 was tested, and the TGI was over 100 µM. For O=C(CC(=O)C1=CNc2ccccc2S1)C(=O)Nc1ccc(Cl)cc1, the TGI was over 50 µM. Cc1oc2c(C)c3oc(=O)cc(C)c3cc2c1CN1C(=O)C2OCCOCCOCCOCCOCCO[C@H]2C1=O (stereo partly drawn) gave a TGI of over 100 µM. O=C(Nc1ccncc1)C(=O)c1cn(Cc2ccc(Cl)cc2)c2ccccc12 was tested, and the GI50 was 0.0309 µM and the TGI was over 35 µM.

These compounds were tested on SW-620 colon (assay: DTP human tumour cell line panel, 48 h).
CCn1cc(C(=O)N/N=C/c2ccccc2)c(=O)c2cc(F)c(N3CCNC(C)C3)c(F)c21 (stereo not drawn) gave a GI50 of 1.76 µM and a TGI of 3.31 µM. c1ccc(CN2CCC3(CC2)SSC2(CCN(Cc4ccccc4)CC2)S3)cc1 was tested, and the TGI was over 100 µM. Work on CCOC(=O)c1c2c(n(Cc3ccc(Cl)cc3Cl)c1C)-c1nc[nH]c1C(=O)C2=O yielded a GI50 of 6.19 µM and a TGI of 18.2 µM. In the case of COc1cccc2c1C(=O)c1c(O)c3c(c(O)c1C2=O)CC(O)(C(O)CO)CC3OC1CC(N2CCOCC2)C(O)C(C)O1 (stereo not drawn), the GI50 is reported as 0.0138 µM. Cc1cc(C(=C2C=CC(=Nc3ccccc3)C=C2)c2ccc(Nc3ccccc3)cc2)ccc1N was tested, and the GI50 was 0.29 µM and the TGI was 1.05 µM. In the case of C#CC1(O)C(COP(=O)(O)OC(COCCCCCCCCCCCCCCCCCC)COP(=O)(O)OCC2OC(n3cc(F)c(=O)[nH]c3=O)CC2O)OC(n2ccc(N)nc2=O)C1O (stereo not drawn), the TGI is reported as > 100 µM and 48.1 µM. With O=C1c2cccc(NCCN=Cc3cc([N+](=O)[O-])ccc3O)c2C(=O)c2c(NCCN=Cc3cc([N+](=O)[O-])ccc3O)cccc21 the GI50 was 1.49 µM and the TGI was over 100 µM. Work on CCN(CC)CCOc1ccc(CCc2cc(OC)c(OC)c(OC)c2)cc1 yielded a TGI of 46.8 µM. O=c1[nH]nc2ccccc2c1Cc1ccccc1 was tested, and the TGI was over 100 µM. Compound O=C(CC(=O)C1=CNc2ccccc2S1)C(=O)Nc1ccc(Cl)cc1 has a TGI of over 50 µM. Compound Cc1oc2c(C)c3oc(=O)cc(C)c3cc2c1CN1C(=O)C2OCCOCCOCCOCCOCCO[C@H]2C1=O (stereo partly drawn) has a TGI of over 100 µM. O=C(Nc1ccncc1)C(=O)c1cn(Cc2ccc(Cl)cc2)c2ccccc12 gave a GI50 of 0.0332 µM and a TGI of over 100 µM.

What follows are compounds tested on UACC-62 melanoma (assay: DTP human tumour cell line panel, 48 h).
With c1ccc(CN2CCC3(CC2)SSC2(CCN(Cc4ccccc4)CC2)S3)cc1 the TGI was over 100 µM. Work on Cc1cc(C(=C2C=CC(=Nc3ccccc3)C=C2)c2ccc(Nc3ccccc3)cc2)ccc1N yielded a GI50 of 0.25 µM and a TGI of 0.796 µM. With C#CC1(O)C(COP(=O)(O)OC(COCCCCCCCCCCCCCCCCCC)COP(=O)(O)OCC2OC(n3cc(F)c(=O)[nH]c3=O)CC2O)OC(n2ccc(N)nc2=O)C1O (stereo not drawn) the TGI was 11.8 µM and 7.46 µM. In the case of O=C1c2cccc(NCCN=Cc3cc([N+](=O)[O-])ccc3O)c2C(=O)c2c(NCCN=Cc3cc([N+](=O)[O-])ccc3O)cccc21, the GI50 is reported as 33 µM and the TGI is reported as over 100 µM. For CCN(CC)CCOc1ccc(CCc2cc(OC)c(OC)c(OC)c2)cc1, the TGI was 66.3 µM. For O=c1[nH]nc2ccccc2c1Cc1ccccc1, the TGI was over 100 µM. Compound O=C(CC(=O)C1=CNc2ccccc2S1)C(=O)Nc1ccc(Cl)cc1 has a TGI of over 50 µM. In the case of Cc1oc2c(C)c3oc(=O)cc(C)c3cc2c1CN1C(=O)C2OCCOCCOCCOCCOCCO[C@H]2C1=O (stereo partly drawn), the TGI is reported as over 100 µM. Cc1ccc(-c2nc(C#N)c(S(=O)(=O)n3nc(C)cc3N)o2)cc1 was tested, and the GI50 was 6.32 µM and the TGI was 19.8 µM. With O=C(Nc1ccncc1)C(=O)c1cn(Cc2ccc(Cl)cc2)c2ccccc12 the GI50 was 0.0514 µM and the TGI was over 100 µM.
